≈ marks a conversion by molar mass, not a printed value.
How the values were obtained:
[1] = tested on: Panel (Carcinoma cell lines); assay: Inhibitory activity against human cancer cell line growth was determined; assay type: functional
[2] = tested on: Panel (Carcinoma cell lines); assay: Effective dose for human cancer cell line growth inhibition was determined; assay type: functional; details: read-out: ED50 (the source's name)

Row | Compound | GI50 [1] [nM] | EC50 [2] [µg/mL]
1 | C[C@@H]1[C@]2(O[C@H]3C=C4[C@@H]5CC[C@H]6Cc7nc8c(nc7C[C@]6(C)[C@H]5C[C@@H](O)[C@]4(C)[C@]31O)C[C@@H]1CC[C@H]3C4=C[C@@H]5O[C@]6(O[C@](C)(CO)C[C@H]6O)[C@@H](C)[C@]5(O)[C@@]4(C)[C@H](O)C[C@@H]3[C@@]1(C)[C@H]8O)O[C@](C)(CO)C[C@H]2O [CEPHALOSTATIN 13] | > 1000 | 0.046 (≈ 0.0479 µM)
2 | C[C@@H]1[C@]2(O[C@H]3C=C4[C@@H]5CC[C@H]6Cc7nc8c(nc7C[C@]6(C)[C@H]5C[C@@H](O)[C@]4(C)[C@]31O)C[C@@H]1CC[C@H]3C4=C[C@@H]5O[C@]6(O[C@](C)(CO)C[C@H]6O)[C@@H](C)[C@]5(O)[C@@]4(C)[C@H](O)C[C@@H]3[C@@]1(C)C8)O[C@](C)(CO)C[C@H]2O [CEPHALOSTATIN 12] | 400 | 0.072 (≈ 0.0762 µM)
3 | C[C@@H]1[C@]2(O[C@H]3C=C4[C@@H]5CC[C@H]6Cc7nc8c(nc7C[C@]6(C)[C@H]5C[C@@H](O)[C@]4(C)[C@]31O)C[C@@H]1CC[C@H]3C4=CC[C@@H]5[C@H](C)[C@@]6(OC[C@]45C(=O)C[C@@H]3[C@@]1(C)C8)OC(C)(C)C[C@H]6O)O[C@](C)(CO)C[C@H]2O [CEPHALOSTATIN 1] | 1 | –
